O=C(O)c1c(O)cccc1O
solubility (mole fraction)
Conditions	278.15 K	283.15 K	288.15 K	293.15 K	298.15 K	303.15 K	308.15 K	313.15 K	318.15 K
in ethanol	0.221	0.234	0.245	0.258	0.273	0.286	0.294	0.306	0.318
in isopropanol	0.225	0.24	0.254	0.268	0.28	0.292	0.303	0.315	0.323
in methanol	0.2	0.214	0.227	0.247	0.261	0.276	0.284	0.3	0.314
in n-butanol	0.189	0.202	0.216	0.23	0.245	0.26	0.275	0.29	0.306
